{"source": "paper PMC6838876", "about": "(Heliyon, 2019)", "key": {"[1]": {"test": "Urinary excretion rate after oral gavage to non-fasted rats (HPLC of urine, free and conjugated forms)", "type": "in vivo, Male Wistar rats", "conditions": "40 mg/kg BW gavage; for Total urinary excretion rate at 48 h: all free and conjugated HAs", "experimental": "The urine samples were stored at -80 °C until analysis. The rats were fed the AIN-93M diet throughout the experiment. This study was approved by the Animal Care Committee of Kindai University (permit number KABT-24-002), and the animals were maintained in accordance with the guidelines. Sample size, dose, and duration of urine collection were determined on the basis of our preliminary experiments.\nThe HA composition in urine was determined by the method described by Zhao et al. with a modification. […] The urine sample (20 μL) was added to 360 μL of acetic acid buffer (pH 5.0) containing 10 μg/mL sinapinic acid (internal standard) and 20 μL of acetic acid buffer (pH 5.0). The mixed solution was filtered through a 0.20 μm disposable syringe filter unit. The filtrate was analyzed by HPLC to quantify free forms of the HAs. Enzymatic hydrolysis was used to determine conjugated forms (glucuronidated and/or sulfated forms). The urine sample (20 μL) was added to 360 μL of acetic acid buffer (pH 5.0) containing 10 μg/mL sinapinic acid (internal standard) and 20 μL of β-glucuronidase type H-2 (containing both β-glucuronidase and sulfatase activity). […] The mixture was saturated with nitrogen gas and incubated at 37 °C for 2 h, followed by filtration through a 0.20 μm disposable syringe filter unit. The filtrate was analyzed by HPLC and the total amount of HAs (free forms and conjugated forms) was quantified. The conjugated HA levels were calculated by subtracting the amount of HA free forms from the total amount of HAs. […] The separation was performed using a 0.1% (v/v) trifluoroacetic acid–methanol solution (75:25, v/v) as the mobile phase at a flow rate of 1.0 mL/min at 40 °C. The injection volume was 10 μL. p-Coumaric acid was detected at 309 nm and the other HAs as well as sinapinic acid were detected at 325 nm based on the maximum absorbance. The urinary excretion rate was calculated as the percentage of the dose (mol/mol)."}, "[2]": {"conditions": "rats fed supplemented diet; cited from earlier work"}, "[3]": {"parameters": "method as in PMID 12097677, PMID 12730422", "conditions": "cited from earlier work"}, "[4]": {"parameters": "method as in PMID 16608213", "conditions": "fasted rats, cited from earlier work"}}, "note": "Marks after values point to notes of the source that are not given here.", "data": [{"smiles": "O=C(O)/C=C/c1ccc(O)c(O)c1", "note": "[Caffeic acid, caffeic acid]", "values": [{"measurement": "Caffeic acid urinary excretion rate", "setting": "[1]; urine 0-6 h", "value": "7.1 % of the dose"}]}, {"smiles": "O=C(/C=C/c1ccc(O)c(O)c1)O[C@@H]1C[C@](O)(C(=O)O)C[C@@H](O)[C@H]1O", "note": "[Chlorogenic acid, chlorogenic acid]", "values": [{"measurement": "Urinary excretion of chlorogenic acid or the total amount of caffeic, ferulic, and isoferulic acids", "setting": "[2]", "value": "less than 1 % of the chlorogenic acid intake"}, {"measurement": "Chlorogenic acid excreted in the urine at 48 h", "setting": "[1]; urine 0-48 h, free form, mean ± SE n = 4, 40 mg/kg", "value": "0.04 ± 0.005^a % of the dose"}, {"measurement": "Chlorogenic acid excreted in the urine at 48 h", "setting": "[1]; urine 0-48 h, free form, mean ± SE n = 4, listed as chlorogenic acid, 40 mg/kg", "value": "0.04 % of the dose"}]}, {"smiles": "COc1cc(/C=C/C(=O)O)ccc1O", "note": "[Ferulic acid, ferulic acid]", "values": [{"measurement": "Ingested ferulic acid recovered as conjugated forms in the urine", "setting": "[3]", "value": "50–70%"}, {"measurement": "Total urinary excretion rate at 48 h", "setting": "[1]; mean ± SE n = 4, 40 mg/kg", "value": "73.2 ± 2.1 % of the dose"}, {"measurement": "Total urinary excretion rate at 48 h", "setting": "[1]; mean ± SE n = 4, listed as ferulic acid, 40 mg/kg", "value": "73.2 % of the dose"}, {"measurement": "Ferulic acid excreted in the urine at 48 h", "setting": "[1]; urine 0-48 h, free form, mean ± SE n = 4", "value": "3.01 ± 0.38^a % of the dose"}, {"measurement": "Ferulic acid conjugates excreted in the urine at 48 h", "setting": "[1]; urine 0-48 h, mean ± SE n = 4", "value": "70.2 ± 6.8^b % of the dose"}, {"measurement": "Ferulic acid conjugates urinary excretion rate", "setting": "[1]; urine 0-6 h", "value": "64.1 % of the dose"}, {"measurement": "Ferulic acid urinary excretion rate", "setting": "[1]; urine 0-6 h", "value": "3.0 % of the dose"}, {"measurement": "Percentage of conjugates in the total urinary excretion", "setting": "[1]; urine at 48 h", "value": 96, "unit": "%"}]}, {"smiles": "O=C(O)/C=C/c1ccc(O)cc1", "note": "[p-Coumaric acid, p-coumaric acid]", "values": [{"measurement": "Ingested p-coumaric acid found in the urine as an intact form", "setting": "[4]; gavage", "value": 23, "unit": "%"}, {"measurement": "Time after gavage within which the majority of p-coumaric acid was detected in urine", "setting": "[4]", "value": "≤ 4", "unit": "h"}, {"measurement": "p-Coumaric acid urinary excretion rate", "setting": "[1]; urine 0-6 h", "value": "14.2 % of the dose"}]}]}
